From the NIST ThermoML archive (doi:10.1021/acs.jced.8b00509)
Values joined by “and” are separate entries in the source; they are usually repeats but may differ in a detail not shown here. Identical values can stand only once.

Key:
[1] = mn = molality of the nth substance listed, in mol/kg; details: 100 kPa, Liquid; for viscosity: Capillary tube (Ostwald / Ubbelohde) method; for speed of sound: Frequency=3 MHz, Single path-length method; for mass density: Vibrating tube method
[2] = 100 kPa, Liquid; for viscosity: Capillary tube (Ostwald / Ubbelohde) method

CN(C)C(=N)NC(=N)N.Cl [N,N-dimethylimidodicarbonimidic diamide hydrochloride] + O
[1]
Details	mass density, m1 = 0.005 [kg/m3]	mass density, m1 = 0.01 [kg/m3]	mass density, m1 = 0.05 [kg/m3]	speed of sound, m1 = 0.005 [m/s]	speed of sound, m1 = 0.01 [m/s]	speed of sound, m1 = 0.05 [m/s]	viscosity, m1 = 0.005 [mPa·s]	viscosity, m1 = 0.01 [mPa·s]	viscosity, m1 = 0.05
293.15 K	998.35	998.57	999	1483	1483.3	1483.7	1.006	1.01	1.014 mPa·s
298.15 K	997.2	997.4	997.91	1497	1497.3	1497.7	0.891	0.893	0.895 mPa·s and 0.8947 mPa·s
303.15 K	995.72	995.99	996.53	1509.4	1509.7	1510	0.799	0.801	0.804 mPa·s
308.15 K	994.19	994.37	994.92	1520	1520.3	1520.7	0.722	0.725	0.728 mPa·s and 0.7276 mPa·s
313.15 K	992.38	992.54	993.1	1529.1	1529.4	1529.7	0.655	0.657	0.659 mPa·s

O [water]
[2]
Details	viscosity [mPa·s]
293.15 K	1.002
298.15 K	0.89
303.15 K	0.797
308.15 K	0.719
313.15 K	0.652

Details	speed of sound [m/s]
[2], 313.15 K, Frequency=3 MHz, Single path-length method	1528.8
